In PubChem BioAssay (NCI) one finds GI50 and TGI data, which are given here for 15 compounds.

Several values for one entry are separate records, joined by “and”; a condition that tells them apart may be missing. Equal entries are not always repeated.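 Test compounds were applied to cells in 96-well plates for 48 hours at 5 doses. Here, GI50 denotes the concentration required for 50% inhibition of growth. TGI denotes the concentration required for complete inhibition of growth.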

Among the test systems are IGROV1 ovarian; COLO 205 colon; HOP-62 NSCLC; SF-295 CNS; MOLT-4 leukemia; M14 melanoma; NCI-H460 lung; RXF 393 renal; HCT-15 colon; UACC-62 melanoma.
Assay in all cases: NCI anticancer screen, dose series, 48 h

With `COc1ccc(-c2cc3c(N)ncnc3o2)cc1`, the GI50 in the test on IGROV1 ovarian is 24.3 µM; in the test with COLO 205 colon it was above 25 µM; in the test on HOP-62 NSCLC, above 25 µM; in the test on SF-295 CNS, above 25 µM; with MOLT-4 leukemia, above 25 µM; in the test on M14 melanoma, above 19.1 µM. The GI50 is above 25 µM in the test with NCI-H460 lung, above 25 µM in the test with RXF 393 renal, above 25 µM with HCT-15 colon and 5.72 µM in the test with UACC-62 melanoma. Further, the TGI with IGROV1 ovarian, with COLO 205 colon, in the test on HOP-62 NSCLC, in the test on SF-295 CNS, in the test with MOLT-4 leukemia and in the test on M14 melanoma was above 25 µM in each case. Also, the TGI with NCI-H460 lung, in the test with RXF 393 renal, with HCT-15 colon and with UACC-62 melanoma was above 25 µM each time.
Take `CC1SC(c2cccc(Cl)c2)N(NC(=O)C(O)c2ccccc2)C1=O` (stereo not drawn): the GI50 in the test with IGROV1 ovarian was 68.7 µM; with COLO 205 colon, above 100 µM; in the test on HOP-62 NSCLC it was above 100 µM; in the test on SF-295 CNS it was above 100 µM; in the test on MOLT-4 leukemia it was above 100 µM; with M14 melanoma it was above 100 µM. Also, the GI50 in the test on NCI-H460 lung was above 100 µM; in the test on RXF 393 renal, 80.6 µM; in the test on HCT-15 colon, above 100 µM; with UACC-62 melanoma, 39 µM. The TGI with IGROV1 ovarian, in the test on COLO 205 colon, with HOP-62 NSCLC, with SF-295 CNS, with MOLT-4 leukemia and in the test on M14 melanoma was above 100 µM in each case. Further, the TGI with NCI-H460 lung, in the test with RXF 393 renal, in the test on HCT-15 colon and in the test on UACC-62 melanoma was above 100 µM throughout.
For the compound `COc1cc2c3c(n(CCCN4CCN(CCO)CC4)c(=O)c2cc1OC)-c1cc2c(cc1C3=O)OCO2`, the GI50 with IGROV1 ovarian is above 34.2 µM; with COLO 205 colon it was 15.1 µM; in the test on HOP-62 NSCLC, 10.1 µM; in the test with SF-295 CNS, 1.55 µM; in the test with MOLT-4 leukemia it was 0.0899 µM; with M14 melanoma, 6.23 µM. The results for the GI50 in the test on NCI-H460 lung, in the test with RXF 393 renal and in the test on HCT-15 colon were 0.972 µM, 13.4 µM and 18.1 µM, respectively. The TGI is above 50.9 µM in the test on IGROV1 ovarian; above 57.2 µM in the test on COLO 205 colon; 54 µM in the test on HOP-62 NSCLC; 25.2 µM in the test with SF-295 CNS; 6.24 µM in the test on MOLT-4 leukemia; 19.5 µM in the test on M14 melanoma. Besides, the TGI is 18.4 µM in the test with NCI-H460 lung, 30.9 µM in the test on RXF 393 renal, above 61.2 µM in the test on HCT-15 colon and above 33.9 µM in the test with UACC-62 melanoma.
`CCC(=O)OCN1C(=O)C=CC1=O`: the GI50 was 21.4 µM in the test on IGROV1 ovarian; 1.84 µM with COLO 205 colon; 18.4 µM with SF-295 CNS; 3.32 µM with MOLT-4 leukemia; 21.3 µM with NCI-H460 lung; 20.1 µM in the test with HCT-15 colon. The TGI in the test with IGROV1 ovarian was 40.5 µM and 34.2 µM; in the test with COLO 205 colon, 3.56 µM and 11.3 µM; in the test on HOP-62 NSCLC, 37.6 µM and 34.9 µM; with SF-295 CNS, 35.2 µM and > 66.6 µM; in the test with M14 melanoma, 37.5 µM and 32.3 µM; in the test on NCI-H460 lung, 44.2 µM and 33.7 µM. For the same compound, the TGI in the test on RXF 393 renal was 30.6 µM and 30.5 µM; in the test with HCT-15 colon it was 39.7 µM and 56.8 µM; in the test on UACC-62 melanoma, 31.8 µM and 30.7 µM.
On to `CCCC(CCC)C(=O)O`, for which the GI50 is above 100 µM in the test on IGROV1 ovarian; above 100 µM in the test with COLO 205 colon; above 20000 µM in the test with HOP-62 NSCLC; above 100 µM with SF-295 CNS; above 100 µM in the test on MOLT-4 leukemia; 19900 µM with M14 melanoma. Besides, the GI50 with NCI-H460 lung, in the test with RXF 393 renal, in the test with HCT-15 colon and with UACC-62 melanoma was above 100 µM in each case. Also, the TGI with IGROV1 ovarian is above 20000 µM; in the test with COLO 205 colon, > 100 µM and 10300 µM; in the test with HOP-62 NSCLC it was above 20000 µM; with SF-295 CNS it was above 20000 µM; with MOLT-4 leukemia, above 20000 µM; with M14 melanoma, above 20000 µM. The TGI in the test with NCI-H460 lung is above 20000 µM; with RXF 393 renal it was > 100 µM and 14600 µM; with HCT-15 colon, above 20000 µM; in the test with UACC-62 melanoma, above 20000 µM.
Take `CC1(C)N=C(N)N=C(N)N1c1ccc(CCC(=O)Nc2cccc(S(=O)(=O)F)c2)cc1`: the GI50 was 1.09 µM in the test with IGROV1 ovarian; 41.1 µM in the test on COLO 205 colon; 6.56 µM in the test on HOP-62 NSCLC; 7.75 µM in the test on SF-295 CNS; 19.8 µM in the test with MOLT-4 leukemia; 6.69 µM in the test on M14 melanoma. Moreover, the GI50 in the test on NCI-H460 lung is 3.04 µM; in the test on RXF 393 renal, 56.8 µM; with HCT-15 colon, 30.7 µM; in the test with UACC-62 melanoma, 5.3 µM. Moreover, the TGI is 5 µM in the test with IGROV1 ovarian; above 100 µM with COLO 205 colon; above 100 µM in the test with HOP-62 NSCLC; above 100 µM with SF-295 CNS; above 100 µM in the test with MOLT-4 leukemia; above 100 µM in the test on M14 melanoma. Moreover, the TGI with NCI-H460 lung, in the test on RXF 393 renal, in the test on HCT-15 colon and in the test with UACC-62 melanoma was above 100 µM throughout.
As for `CCN(CC)c1ccc(N=C2C=CC(=C(C#N)C#N)c3ccccc32)c(C)c1`, the TGI in the test with IGROV1 ovarian came to 8.86 µM; with COLO 205 colon, 8.05 µM; with HOP-62 NSCLC, 6.25 µM; in the test with SF-295 CNS, 5.66 µM; in the test on MOLT-4 leukemia, 9.63 µM; in the test on M14 melanoma, 3.6 µM. Besides, the TGI came out at 8.41 µM with NCI-H460 lung, 3.24 µM in the test with RXF 393 renal, 10.2 µM with HCT-15 colon and 3.43 µM in the test on UACC-62 melanoma.
For `C=C1CC(CC(=O)C(C)CC2CC(=C)C(=O)O2)OC1=O` (stereo not drawn), the TGI with IGROV1 ovarian is above 100 µM; in the test on COLO 205 colon, 27.1 µM; with HOP-62 NSCLC it was above 100 µM; in the test with SF-295 CNS, above 100 µM; with MOLT-4 leukemia, 29.7 µM; in the test with M14 melanoma, 30 µM. Further, the TGI with NCI-H460 lung is above 100 µM; in the test on RXF 393 renal it was 37.9 µM; with HCT-15 colon, 36.7 µM; with UACC-62 melanoma, 30.1 µM.
In the case of `CC(=O)Nc1ccccc1S(=O)c1ccccc1` (stereo not drawn), the TGI in the test with IGROV1 ovarian, in the test with COLO 205 colon, in the test with HOP-62 NSCLC, with SF-295 CNS, in the test on MOLT-4 leukemia and with M14 melanoma was above 100 µM in each case. Further, the TGI in the test on NCI-H460 lung, in the test on RXF 393 renal, in the test on HCT-15 colon and with UACC-62 melanoma was above 100 µM throughout.
Turning to `CN1CCN(Cc2ccc(NC(=O)c3cncc(C#Cc4ncc5ccccn45)c3)cc2C(F)(F)F)CC1`, the GI50 in the test with IGROV1 ovarian was 0.892 µM; in the test with COLO 205 colon it was 0.561 µM; in the test on HOP-62 NSCLC, 1.45 µM; with SF-295 CNS, 1.35 µM; in the test on MOLT-4 leukemia it was 0.892 µM; in the test on M14 melanoma it was 1.01 µM. The GI50 is 1.02 µM in the test with NCI-H460 lung, 1.09 µM in the test with RXF 393 renal, 1.2 µM in the test with HCT-15 colon and 3.04 µM in the test with UACC-62 melanoma. The TGI in the test on IGROV1 ovarian was 4.07 µM; with COLO 205 colon, 1.39 µM; in the test with HOP-62 NSCLC it was 4.77 µM; in the test with SF-295 CNS, 4.75 µM; in the test on MOLT-4 leukemia, 5.82 µM; in the test on M14 melanoma, 3.98 µM. The TGI with NCI-H460 lung amounted to 3.86 µM; in the test with RXF 393 renal it was 3.73 µM; in the test on HCT-15 colon it was 7.4 µM; in the test with UACC-62 melanoma, 6.76 µM.
Take `CN(C)c1ccc(/C=c2\sc3nnc(Cc4ccccc4)n3c2=O)cc1`: the GI50 in the test on IGROV1 ovarian, in the test on HOP-62 NSCLC, with SF-295 CNS, in the test on MOLT-4 leukemia, in the test on M14 melanoma and in the test on NCI-H460 lung was above 100 µM throughout. The GI50 in the test on RXF 393 renal is above 10 µM; in the test with HCT-15 colon it was above 10 µM; in the test with UACC-62 melanoma, above 100 µM. In addition, the TGI was above 100 µM in the test on IGROV1 ovarian; above 10 µM in the test with COLO 205 colon; above 100 µM with HOP-62 NSCLC; above 100 µM in the test with SF-295 CNS; above 100 µM with MOLT-4 leukemia; above 100 µM in the test with M14 melanoma. The TGI in the test with NCI-H460 lung is above 100 µM; with RXF 393 renal, > 10 µM and 97.3 µM; in the test on HCT-15 colon it was > 10 µM and 37.8 µM; with UACC-62 melanoma it was above 100 µM.
As to `O=[N+]([O-])c1ccc2nc(=S)[nH]n2c1`, the TGI in the test on IGROV1 ovarian, with COLO 205 colon, in the test on HOP-62 NSCLC, in the test with SF-295 CNS, in the test with MOLT-4 leukemia and in the test on M14 melanoma was above 100 µM each time. For the same compound, the TGI in the test on NCI-H460 lung, in the test with RXF 393 renal, with HCT-15 colon and with UACC-62 melanoma was above 100 µM in each case.
For the compound `CC(=O)Nc1ccc(OCC(O)CO)cc1` (stereo not drawn), the TGI in the test with IGROV1 ovarian, in the test with COLO 205 colon, with HOP-62 NSCLC, with SF-295 CNS, with MOLT-4 leukemia and in the test with M14 melanoma was above 100 µM in each case. The TGI with NCI-H460 lung, in the test on RXF 393 renal, with HCT-15 colon and in the test with UACC-62 melanoma was above 100 µM each time.
For `O=C1CC2OCC=C3CN4CCC56c7ccccc7N1C5C2C3CC46` (stereo not drawn) (tested in a mixture with another compound), the GI50 with IGROV1 ovarian is above 50 µg/mL; with COLO 205 colon, above 50 µg/mL; in the test with HOP-62 NSCLC it was above 50 µg/mL; in the test with SF-295 CNS, above 50 µg/mL; in the test with MOLT-4 leukemia it was 11.5 µg/mL; in the test on M14 melanoma it was above 50 µg/mL. Besides, the GI50 with NCI-H460 lung, with RXF 393 renal, with HCT-15 colon and in the test with UACC-62 melanoma was above 50 µg/mL each time. Also, the TGI is above 50 µg/mL with IGROV1 ovarian; above 50 µg/mL in the test with COLO 205 colon; above 50 µg/mL in the test on HOP-62 NSCLC; above 50 µg/mL in the test with SF-295 CNS; 24.9 µg/mL with MOLT-4 leukemia; above 50 µg/mL with M14 melanoma. Moreover, the TGI in the test with NCI-H460 lung, in the test with RXF 393 renal, with HCT-15 colon and in the test with UACC-62 melanoma was above 50 µg/mL throughout.
As for `COc1ccc(S(=O)(=O)N/N=C/CN2C(=O)c3ccccc3C2=O)cc1`, the TGI in the test on IGROV1 ovarian, with COLO 205 colon, with HOP-62 NSCLC, in the test on SF-295 CNS, in the test on MOLT-4 leukemia and in the test with M14 melanoma was above 100 µM in each case. The TGI with NCI-H460 lung, with RXF 393 renal, in the test with HCT-15 colon and in the test on UACC-62 melanoma was above 100 µM in each case.
